17 compounds from patent US8415469B2, “Compounds and methods for kinase modulation, and indications therefor” (Plexxikon Inc., priority 2005, dated 2013) can be followed below.

pIC50: −log10 of the molar value.

Type in all cases: biochemical
One test has as its target T1, MAPKAPK2 (Homo sapiens, UniProt P49137).
T1 construct: purchased Invitrogen (assay run by Invitrogen)
The test can be described thus: Z'-Lyte FRET kinase assay (Invitrogen), MAPKAPK2. Conditions: read-out: IC50, activity toward kinase MAPKAPK2. In short, it runs like this: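 Z′-Lyte FRET assay: kinase phosphorylates 2 μM peptide substrate at 10 μM ATP in 50 mM HEPES pH 7.5, 50 mM MgCl2, 5 mM EGTA, 0.05% BRIJ-35, 1% DMSO, 1 h at room temperature. Protease development 1 h; coumarin/fluorescein emission ratio gives phosphorylation extent over compound concentration curves.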

For another test, the target named is Brk (Homo sapiens, UniProt Q13882). The test can be described thus: AlphaScreen kinase assay, Brk. Conditions: read-out: IC50, activity toward kinase Brk. In short, it runs like this: (§1)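 Uses phospho-specific antibody on acceptor beads plus streptavidin donor beads capturing biotinylated peptide substrate; singlet oxygen from donor excites nearby acceptor. Inhibitors tested in 8-point, 1:3 titrations starting from 20 mM DMSO solutions.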

Another test deals with Csk (Homo sapiens, UniProt P41240). The test can be described thus: AlphaScreen kinase assay, Csk. Conditions: read-out: IC50, activity toward kinase Csk. In short, it runs like this: as §1
A further test concerns the target PDGFRA (Homo sapiens, UniProt P16234). The test can be described thus: AlphaScreen kinase assay, PDGFRA. Conditions: read-out: IC50, activity toward kinase PDGFRA. From the text:
(§2) AlphaScreen assay was used to screen additional kinases. The assay is similarly dependent on the phosphorylation of a peptide substrate. In this assay, an antibody that recognizes phosphorylated substrate is bound to an acceptor bead. The peptide substrate is attached to biotin, which binds to a donor head that contains streptavidin. Thus phosphorylated substrate is bound by antibody and streptavidin, bringing the donor and acceptor heads into close proximity when kinase is not inhibited. The donor produces singlet oxygen which results in emission from the acceptor when they are in close proximity. Conversely, when kinase is inhibited, the donor and acceptor beads are not associated and the emission from the acceptor is reduced.
(§3) AlphaScreen assays were done using compounds dissolved in DMSO to a concentration of 20 mM. The compounds were diluted accordingly to the desired final concentrations in each sample well, using 1:3 serial dilution for a total of 8 concentration points.

The target in a further test is T2, IKK beta (Homo sapiens, UniProt O14920).
T2 sequence (O14920 1-756): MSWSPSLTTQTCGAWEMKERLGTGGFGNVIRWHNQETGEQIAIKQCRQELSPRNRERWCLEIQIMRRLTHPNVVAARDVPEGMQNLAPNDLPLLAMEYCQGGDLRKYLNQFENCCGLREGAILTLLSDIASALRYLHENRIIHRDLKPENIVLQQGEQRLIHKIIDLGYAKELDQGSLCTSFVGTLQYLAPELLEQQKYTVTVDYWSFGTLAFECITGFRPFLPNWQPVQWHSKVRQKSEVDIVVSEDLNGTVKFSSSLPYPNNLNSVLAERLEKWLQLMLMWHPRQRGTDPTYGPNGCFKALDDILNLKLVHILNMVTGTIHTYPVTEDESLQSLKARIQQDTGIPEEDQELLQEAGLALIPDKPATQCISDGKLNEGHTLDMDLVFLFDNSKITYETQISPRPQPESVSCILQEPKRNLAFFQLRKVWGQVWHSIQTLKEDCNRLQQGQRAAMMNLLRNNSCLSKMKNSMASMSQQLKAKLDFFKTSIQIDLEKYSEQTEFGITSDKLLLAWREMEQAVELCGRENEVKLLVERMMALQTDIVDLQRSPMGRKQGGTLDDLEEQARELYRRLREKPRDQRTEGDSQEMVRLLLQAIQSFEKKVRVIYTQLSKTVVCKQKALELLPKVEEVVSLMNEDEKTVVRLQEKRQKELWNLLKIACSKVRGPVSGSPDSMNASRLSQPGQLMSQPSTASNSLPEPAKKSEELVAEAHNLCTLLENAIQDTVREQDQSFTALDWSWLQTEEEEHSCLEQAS
Put plainly: AlphaScreen kinase assay, IKK beta. Conditions: read-out: IC50, activity toward kinase IKK beta. Background: Alpha assays give light when donor and acceptor beads are brought close together.

Another test concerns the target Frk (Homo sapiens, UniProt P42685). Put plainly: AlphaScreen kinase assay, Frk. Conditions: read-out: IC50, activity toward kinase Frk. Summed up: as §1
The target of the next test is Plk1 (Homo sapiens, UniProt P53350). The test can be described thus: AlphaScreen kinase assay, Plk1. Conditions: read-out: IC50, activity toward kinase Plk1. Summed up: as §1
A further test deals with T3, Erk2 (Homo sapiens, UniProt P28482).
T3 construct: P4227.pET15S ERK2/MEK1DD; His6 with thrombin site (N); made in house
Put plainly: AlphaScreen kinase assay, Erk2. Conditions: read-out: IC50, activity toward kinase Erk2.
Description: as §2, §3

The next test addresses Tie2 (Homo sapiens, UniProt Q02763). Put plainly: AlphaScreen kinase assay, Tie2. Conditions: read-out: IC50, activity toward kinase Tie2.
Description: as §2, §3

The target of another test is ALK (Homo sapiens, UniProt Q9UM73). Put plainly: AlphaScreen kinase assay, ALK. Conditions: read-out: IC50, activity toward kinase ALK.
Description: as §2, §3

ALK, sequence (Q9UM73 19-1620): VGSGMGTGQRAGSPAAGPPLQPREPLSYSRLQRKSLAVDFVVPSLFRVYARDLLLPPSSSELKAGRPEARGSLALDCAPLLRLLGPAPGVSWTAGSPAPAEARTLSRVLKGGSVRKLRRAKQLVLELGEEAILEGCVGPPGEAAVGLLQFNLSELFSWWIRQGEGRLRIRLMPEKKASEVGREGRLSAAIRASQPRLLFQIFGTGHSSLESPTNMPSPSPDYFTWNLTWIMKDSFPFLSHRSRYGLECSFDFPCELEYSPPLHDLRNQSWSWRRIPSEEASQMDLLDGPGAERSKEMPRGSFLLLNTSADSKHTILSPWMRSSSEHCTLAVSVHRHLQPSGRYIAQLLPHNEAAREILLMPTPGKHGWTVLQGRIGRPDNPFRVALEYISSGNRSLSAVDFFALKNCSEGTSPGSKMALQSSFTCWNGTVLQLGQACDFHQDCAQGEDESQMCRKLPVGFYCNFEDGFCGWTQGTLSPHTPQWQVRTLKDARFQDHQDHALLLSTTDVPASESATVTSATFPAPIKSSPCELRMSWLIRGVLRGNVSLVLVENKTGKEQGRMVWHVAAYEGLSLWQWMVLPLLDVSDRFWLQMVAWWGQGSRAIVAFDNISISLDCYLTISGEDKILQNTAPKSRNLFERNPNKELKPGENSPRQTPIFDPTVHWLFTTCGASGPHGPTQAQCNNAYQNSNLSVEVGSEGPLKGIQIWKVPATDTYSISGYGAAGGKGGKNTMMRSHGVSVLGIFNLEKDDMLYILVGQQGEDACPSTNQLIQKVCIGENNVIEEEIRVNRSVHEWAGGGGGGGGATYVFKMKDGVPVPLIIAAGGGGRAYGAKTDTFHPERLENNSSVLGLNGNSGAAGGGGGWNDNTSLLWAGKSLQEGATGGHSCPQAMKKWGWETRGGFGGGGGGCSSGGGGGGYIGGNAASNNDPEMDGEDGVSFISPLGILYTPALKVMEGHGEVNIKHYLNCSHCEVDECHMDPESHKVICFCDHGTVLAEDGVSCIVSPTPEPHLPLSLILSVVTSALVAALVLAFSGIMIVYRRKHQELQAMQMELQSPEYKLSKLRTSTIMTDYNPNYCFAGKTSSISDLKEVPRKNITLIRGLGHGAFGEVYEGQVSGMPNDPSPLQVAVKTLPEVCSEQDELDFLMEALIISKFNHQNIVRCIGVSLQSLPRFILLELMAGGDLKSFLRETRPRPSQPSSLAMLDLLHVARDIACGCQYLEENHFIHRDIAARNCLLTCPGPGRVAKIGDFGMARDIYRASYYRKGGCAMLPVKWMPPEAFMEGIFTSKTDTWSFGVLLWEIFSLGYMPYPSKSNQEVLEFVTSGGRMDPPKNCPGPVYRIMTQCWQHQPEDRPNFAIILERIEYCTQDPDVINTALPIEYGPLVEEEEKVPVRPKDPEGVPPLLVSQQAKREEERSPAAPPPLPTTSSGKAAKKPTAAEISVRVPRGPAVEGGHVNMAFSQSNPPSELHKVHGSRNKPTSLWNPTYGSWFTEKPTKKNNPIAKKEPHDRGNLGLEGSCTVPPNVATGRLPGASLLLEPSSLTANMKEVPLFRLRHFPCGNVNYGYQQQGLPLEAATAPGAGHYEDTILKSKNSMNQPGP
Tie2, sequence (Q02763 23-1124): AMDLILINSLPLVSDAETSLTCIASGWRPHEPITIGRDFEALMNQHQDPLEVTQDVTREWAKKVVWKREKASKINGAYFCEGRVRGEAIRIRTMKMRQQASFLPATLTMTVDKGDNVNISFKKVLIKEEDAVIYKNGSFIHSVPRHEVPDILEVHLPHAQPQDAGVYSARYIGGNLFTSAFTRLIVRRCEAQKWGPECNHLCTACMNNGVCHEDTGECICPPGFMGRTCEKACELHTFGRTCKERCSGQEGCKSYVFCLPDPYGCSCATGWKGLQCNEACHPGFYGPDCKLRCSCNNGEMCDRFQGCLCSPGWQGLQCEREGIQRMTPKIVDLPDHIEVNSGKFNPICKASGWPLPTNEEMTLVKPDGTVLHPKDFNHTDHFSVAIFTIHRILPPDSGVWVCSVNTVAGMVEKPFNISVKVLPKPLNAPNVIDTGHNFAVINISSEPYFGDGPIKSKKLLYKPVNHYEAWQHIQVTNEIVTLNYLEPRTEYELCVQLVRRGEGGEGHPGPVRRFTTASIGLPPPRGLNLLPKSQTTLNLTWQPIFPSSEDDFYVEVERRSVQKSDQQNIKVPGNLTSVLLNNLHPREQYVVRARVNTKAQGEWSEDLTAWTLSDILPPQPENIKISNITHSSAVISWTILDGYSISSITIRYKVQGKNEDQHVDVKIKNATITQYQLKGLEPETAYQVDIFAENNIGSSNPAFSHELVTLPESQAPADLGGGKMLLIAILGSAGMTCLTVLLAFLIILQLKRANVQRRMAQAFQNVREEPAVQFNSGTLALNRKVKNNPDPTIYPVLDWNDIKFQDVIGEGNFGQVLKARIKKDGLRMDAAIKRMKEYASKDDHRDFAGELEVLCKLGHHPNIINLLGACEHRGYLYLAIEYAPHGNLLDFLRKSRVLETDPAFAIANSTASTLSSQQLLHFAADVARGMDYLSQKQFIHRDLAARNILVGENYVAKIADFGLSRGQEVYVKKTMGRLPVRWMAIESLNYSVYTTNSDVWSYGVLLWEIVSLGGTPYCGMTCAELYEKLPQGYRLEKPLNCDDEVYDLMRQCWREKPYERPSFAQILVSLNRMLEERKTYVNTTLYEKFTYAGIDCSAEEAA
T3 sequence (P28482 with tags, fused parts or gaps): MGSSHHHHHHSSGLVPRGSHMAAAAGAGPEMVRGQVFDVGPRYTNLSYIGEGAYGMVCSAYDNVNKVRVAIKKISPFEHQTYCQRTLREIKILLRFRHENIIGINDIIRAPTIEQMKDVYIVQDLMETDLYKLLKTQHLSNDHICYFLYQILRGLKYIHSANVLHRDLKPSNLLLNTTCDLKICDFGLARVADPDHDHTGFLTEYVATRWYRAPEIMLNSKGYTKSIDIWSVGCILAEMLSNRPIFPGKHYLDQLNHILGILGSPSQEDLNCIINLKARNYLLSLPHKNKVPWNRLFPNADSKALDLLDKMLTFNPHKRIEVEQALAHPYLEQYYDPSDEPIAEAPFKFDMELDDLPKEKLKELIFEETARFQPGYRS
Csk, sequence (P41240 whole entry): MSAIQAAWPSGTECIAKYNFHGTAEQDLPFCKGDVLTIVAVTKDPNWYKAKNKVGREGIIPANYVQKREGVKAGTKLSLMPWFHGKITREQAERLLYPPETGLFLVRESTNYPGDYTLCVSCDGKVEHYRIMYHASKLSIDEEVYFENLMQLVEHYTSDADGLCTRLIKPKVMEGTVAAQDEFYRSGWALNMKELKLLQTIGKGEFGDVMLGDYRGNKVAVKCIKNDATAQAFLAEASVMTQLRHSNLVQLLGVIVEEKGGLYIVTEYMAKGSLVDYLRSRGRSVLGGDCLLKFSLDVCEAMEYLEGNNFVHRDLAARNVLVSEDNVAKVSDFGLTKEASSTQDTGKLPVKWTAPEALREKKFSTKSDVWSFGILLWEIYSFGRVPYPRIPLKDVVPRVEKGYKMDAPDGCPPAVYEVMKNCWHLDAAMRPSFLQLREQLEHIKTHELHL
Frk, sequence (P42685 whole entry): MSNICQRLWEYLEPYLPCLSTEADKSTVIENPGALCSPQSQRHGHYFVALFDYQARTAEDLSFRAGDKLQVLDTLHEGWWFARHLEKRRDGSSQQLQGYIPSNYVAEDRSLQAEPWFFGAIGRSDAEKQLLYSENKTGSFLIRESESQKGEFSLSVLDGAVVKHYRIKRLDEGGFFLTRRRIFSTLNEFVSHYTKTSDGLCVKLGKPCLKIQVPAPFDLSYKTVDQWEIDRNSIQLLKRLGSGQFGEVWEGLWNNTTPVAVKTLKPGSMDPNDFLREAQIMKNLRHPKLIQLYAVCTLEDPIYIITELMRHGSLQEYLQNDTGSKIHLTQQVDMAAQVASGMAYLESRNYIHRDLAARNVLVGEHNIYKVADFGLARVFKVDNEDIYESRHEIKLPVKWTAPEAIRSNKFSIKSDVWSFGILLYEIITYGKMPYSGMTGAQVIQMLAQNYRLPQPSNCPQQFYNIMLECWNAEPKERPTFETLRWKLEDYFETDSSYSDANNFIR
Plk1, sequence (P53350 whole entry): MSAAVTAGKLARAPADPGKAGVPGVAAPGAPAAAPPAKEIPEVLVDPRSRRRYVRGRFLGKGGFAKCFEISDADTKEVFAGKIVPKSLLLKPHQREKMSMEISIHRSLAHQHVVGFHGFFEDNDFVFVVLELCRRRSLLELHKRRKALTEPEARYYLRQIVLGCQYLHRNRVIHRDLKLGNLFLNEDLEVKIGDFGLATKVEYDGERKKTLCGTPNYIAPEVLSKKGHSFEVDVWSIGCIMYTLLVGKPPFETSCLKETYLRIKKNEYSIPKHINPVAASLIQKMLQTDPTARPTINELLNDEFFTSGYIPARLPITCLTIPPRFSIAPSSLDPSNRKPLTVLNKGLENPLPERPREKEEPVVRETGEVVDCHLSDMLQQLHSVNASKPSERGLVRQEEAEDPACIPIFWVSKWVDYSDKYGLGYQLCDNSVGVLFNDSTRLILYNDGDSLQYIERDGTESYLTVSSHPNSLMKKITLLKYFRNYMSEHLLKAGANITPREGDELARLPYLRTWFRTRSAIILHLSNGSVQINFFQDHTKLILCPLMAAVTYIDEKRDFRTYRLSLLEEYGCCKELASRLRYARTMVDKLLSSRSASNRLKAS
T1 sequence (P49137 whole entry): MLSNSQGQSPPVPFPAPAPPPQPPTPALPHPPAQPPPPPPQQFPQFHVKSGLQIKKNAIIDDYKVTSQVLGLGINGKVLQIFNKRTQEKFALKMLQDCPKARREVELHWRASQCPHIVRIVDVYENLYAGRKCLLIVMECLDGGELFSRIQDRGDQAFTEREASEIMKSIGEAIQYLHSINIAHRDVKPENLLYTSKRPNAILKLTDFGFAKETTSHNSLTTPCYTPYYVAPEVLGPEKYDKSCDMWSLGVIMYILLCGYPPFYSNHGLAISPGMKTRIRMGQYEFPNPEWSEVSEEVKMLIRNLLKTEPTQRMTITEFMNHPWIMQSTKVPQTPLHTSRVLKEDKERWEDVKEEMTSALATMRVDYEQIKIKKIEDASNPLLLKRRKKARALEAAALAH

What is called pIC50 is the IC50 on a negative log10 scale, so that one unit is a factor of ten. In the case of `CCCS(=O)(=O)Nc1ccc(F)c(C(=O)c2c[nH]c3ncccc23)c1F` [Compound P-0007, Propane-1-sulfonic acid [2,4-difluoro-3-(1H-pyrrolo[2,3-b]pyridine-3-carbonyl)-phenyl]-amide], the pIC50 at MAPKAPK2, at Brk, at Csk, on PDGFRA, on IKK beta and at Frk was not below 5.00 each time.

As for `NC(=O)c1ccc(-c2ccnc3[nH]cc(C(=O)c4cc(F)ccc4F)c23)cc1` [Compound P-0013], on IKK beta, the pIC50 is not below 5.00.

With `NC(=O)c1ccc(-c2ccnc3[nH]cc(C(=O)c4ccccc4F)c23)cc1` [Compound P-0014], the pIC50 at IKK beta is not below 5.00.

Regarding `Nc1cccc(-c2ccnc3[nH]cc(C(=O)c4ccccc4F)c23)c1` [Compound P-0022], the pIC50 at Plk1 is not below 5.00.

For `Nc1ccnc2[nH]cc(C(=O)c3ccccc3)c12` [Compound P-0029], the pIC50 on IKK beta was not below 5.00.

On to `Cn1cc(C(F)(F)F)c(-c2ccc(S(=O)(=O)NCc3c[nH]c4ncccc34)s2)n1` [Compound P-0041], for which the pIC50 at Erk2 and on MAPKAPK2 was not below 5.00 in each case.

As for `Cc1ccccc1C(=O)c1c[nH]c2nccc(-c3cccc(N)c3)c12` [Compound P-0044], the pIC50 at Plk1 was not below 5.00.

Turning to `Nc1cccc(-c2ccnc3[nH]cc(C(=O)c4cc(F)ccc4F)c23)c1` [Compound P-0046], the pIC50 on Plk1 was not below 5.00.

`Cc1ccc(S(=O)(=O)NCc2c[nH]c3ncccc23)cc1` [Compound P-0058]: the pIC50 at Erk2 and on MAPKAPK2 was not below 5.00 throughout.

For the compound `O=C(c1cccc(O)c1F)c1c[nH]c2ncc(Br)cc12` [Compound P-0067, (5-bromo-1H-pyrrolo[2,3-b]pyridin-3-yl)-(2-fluoro-3-hydroxy-phenyl)-methanone], the pIC50 at Plk1 was not below 5.00.

In the case of `Fc1cc(F)cc(-c2ccnc3[nH]cc(Sc4ccccn4)c23)c1` [Compound P-0106], the pIC50 on MAPKAPK2 and on IKK beta was not below 5.00 in each case.

On to `CCCS(=O)(=O)Nc1ccc(F)c(C(=O)c2c[nH]c3ncc(OC)cc23)c1F` [Compound P-0806, Propane-1-sulfonic acid [2,4-difluoro-3-(5-methoxy-1H-pyrrolo[2,3-b]pyridine-3-carbonyl)-phenyl]-amide], for which the negative-log IC50 (pIC50) at Tie2, on ALK, at Brk, at Csk and at PDGFRA was not below 5.00 throughout.

As for `CCCC(=O)Nc1ccc(F)c(Cc2c[nH]c3ncc(-c4cccnc4)cc23)c1F` [Compound P-1280], the pIC50 at Tie2, at ALK and at PDGFRA was not below 5.00 in each case.

Turning to `CCCCNC(=O)Nc1ccc(F)c(C(=O)c2c[nH]c3ncc(-c4cccnc4)cc23)c1F` [Compound P-1318, 1-Butyl-3-[2,4-difluoro-3-(5-pyridin-3-yl-1H-pyrrolo[2,3-b]pyridine-3-carbonyl)-phenyl]-urea], the pIC50 at Brk and on Frk was not below 5.00 each time.

Regarding `COc1cccc(C(=O)c2c[nH]c3ncc(-c4cccc(NC(C)=O)c4)cc23)c1F` [Compound P-1336, N-{3-[3-(2-Fluoro-3-methoxy-benzoyl)-1H-pyrrolo[2,3-b]pyridin-5-yl]-phenyl}-acetamide], the pIC50 on Tie2, at Erk2, at ALK, at Brk, on Csk and at PDGFRA was not below 5.00 in each case. In addition, the pIC50 on Frk is not below 5.00.

Turning to `OCCOc1ccc(F)c(Cc2c[nH]c3ncc(-c4cccnc4)cc23)c1F` [Compound P-1394, 2-[2,4-Difluoro-3-(5-pyridin-3-yl-1H-pyrrolo[2,3-b]pyridin-3-ylmethyl)-phenoxy]-ethanol], the pIC50 on Tie2, on ALK, at Brk, on Csk, at PDGFRA and on Frk was not below 5.00 throughout.

`COc1cc(OC)cc(C(=O)c2c[nH]c3ncc(-c4cccc(NS(C)(=O)=O)c4)cc23)c1` [Compound P-1426, N-{3-[3-(3,5-Dimethoxy-benzoyl)-1H-pyrrolo[2,3-b]pyridin-5-yl]-phenyl}-methanesulfonamide]: the pIC50 at Tie2, on ALK, at Csk and at PDGFRA was not below 5.00 each time.
